Test results: ChEMBL document CHEMBL1142360 (J Med Chem, 2008)

What was measured:
[1] = Partition coefficient, log P of the compound; format: physicochemical; conditions: octanol/water
[2] = system: PC-3; test: Antiproliferative activity against human PC3 cells; format: functional, cell-based
[3] = system: PC-3; test: Antiproliferative activity against human PC3 cells at 10 uM after 5 days; format: functional

Structure (SMILES)	logP [1]	IC50 [2]	Activity [3]
COc1ccc(C2(c3ccc(C#N)c(C(F)(F)F)c3)NC(=O)N(c3ccc(C#N)c(C(F)(F)F)c3)C2=O)cc1 (configuration not stated)	5.7	5.6 µM	76%
C[C@](O)(CS(=O)(=O)c1ccc(F)cc1)C(=O)Nc1ccc(C#N)c(C(F)(F)F)c1 [(R)-BICALUTAMIDE]	3.4	–	15%
CC1(C)NC(=O)N(c2ccc([N+](=O)[O-])c(C(F)(F)F)c2)C1=O [NILUTAMIDE]	3.2	–	11%
